Biological target: T1, human PDE4B1 (Homo sapiens, UniProt Q07343)
T1 construct: host or cells: Sf9 cells
Test: TR-FRET assay using the LANCE Ultra cAMP kit to determine the activity of hPDE4B1
Format: biochemical
Details: read-out: Inhibition in % (inhibition of PDE4B); for inhibition at 10 µM: test concentration 10 μM (marked in cell); for inhibition at 1 µM: test concentration 1 μM
Text: TR-FRET Assay Using the LANCE® Ultra cAMP Kit to Determine the Activity of hPDE4B1
The effects of the compounds on the activity of the human PDE4B1 was quantified by measuring the production of 5′AMP from cAMP using a human recombinant enzyme expressed in Sf9 cells and the LANCE® Ultra cAMP kit, a TR-FRET detection method from PerkinElmer. The human PDE4B1 enzyme was purchased from SignalChem Lifesciences (Catalog# P92-31BG, Lot# H296-2).
The test compound, reference compound or water (control) was mixed with the enzyme (0.96 U) in a reaction buffer containing 50 mM Tris-HCl, 50 mM MgCl2 and 5 mM DTT (pH 8.5). Thereafter, the reaction was initiated by addition of 500 nM cAMP (substrate) and the mixture was incubated for 30 minutes at room temperature. For control basal measurements, the enzyme was omitted from the reaction mixture. After 30 minutes, the reaction was stopped and diluted by a factor of 100 with the reaction buffer supplemented with 500 μM IBMX. The fluorescence donor (europium chelate-labeled cAMP) and the fluorescence acceptor (anti-cAMP antibody labeled with the ULight™ dye) were then added together with 500 μM IBMX to a 10 μl aliquot. After 60 minutes, the fluorescence transfer corresponding to the amount of residual cAMP was measured at λex=337 nm, λem=620 nm and λem=665 nm using a microplate reader (PHERAstar, BMG). The enzyme activity was determined by dividing the signal measured at 665 nm by that measured at 620 nm (ratio) multiplied by 10000. The results were expressed as percent inhibition of the control enzyme activity. IC50 values (IC50=concentration causing a half-maximal inhibition of control specific activity) were derived from dose response measurements with ten different concentrations (n=3; N=1-3).

T1 sequence (Q07343 whole entry): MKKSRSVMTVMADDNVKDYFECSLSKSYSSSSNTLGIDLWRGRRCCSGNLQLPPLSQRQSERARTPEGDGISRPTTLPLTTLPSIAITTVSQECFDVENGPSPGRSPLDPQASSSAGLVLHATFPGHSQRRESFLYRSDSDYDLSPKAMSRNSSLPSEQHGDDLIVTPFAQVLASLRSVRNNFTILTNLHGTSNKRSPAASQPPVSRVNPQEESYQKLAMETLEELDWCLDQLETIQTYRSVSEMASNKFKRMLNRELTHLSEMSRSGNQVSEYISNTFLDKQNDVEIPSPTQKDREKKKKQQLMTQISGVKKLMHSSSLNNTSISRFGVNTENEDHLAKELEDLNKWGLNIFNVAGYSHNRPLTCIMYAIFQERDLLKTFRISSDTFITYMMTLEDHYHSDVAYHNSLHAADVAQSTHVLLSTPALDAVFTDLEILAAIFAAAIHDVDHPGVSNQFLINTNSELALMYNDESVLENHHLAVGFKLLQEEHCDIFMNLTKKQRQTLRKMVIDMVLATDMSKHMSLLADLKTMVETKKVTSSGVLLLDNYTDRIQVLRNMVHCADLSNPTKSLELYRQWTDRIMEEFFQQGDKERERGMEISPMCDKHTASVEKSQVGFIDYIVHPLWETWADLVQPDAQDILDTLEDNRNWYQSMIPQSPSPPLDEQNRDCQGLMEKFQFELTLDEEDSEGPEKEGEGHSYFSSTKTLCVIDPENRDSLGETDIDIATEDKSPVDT

Row | SMILES | inhibition at 10 µM | inhibition at 1 µM
1 | CN(CC(N)=O)C(=O)c1ccc2c([S+](C)[O-])cn(-c3ncc(-c4cc(C5CC5)ccn4)cn3)c2c1 (single isomer, unassigned) [Example 333, N-(2-Amino-2-oxoethyl)-1-(5-(4-cyclopropylpyridin-2-yl)pyrimidin-2-yl)-N-methyl-3-(methylsulfinyl)-1H-indole-6-carboxamide] | 87% | –
2 | CCc1ccc(F)c(-c2cnc(-n3cc([S+](C)[O-])c4ccc(C(=O)N(C)CC(N)=O)cc43)nc2)c1 (centres unmarked) [Example 280, N-(2-Amino-2-oxoethyl)-1-(5-(5-ethyl-2-fluorophenyl)pyrimidin-2-yl)-N-methyl-3-(methylsulfinyl)-1H-indole-6-carboxamide] | – | 93%
3 | C[S+]([O-])c1cn(-c2ncc(-c3cc(C4(O)CC4)ccn3)cn2)c2cc(C(=O)N3CCOCC3)ccc12 (centres unmarked) [Example 295, (1-(5-(4-(1-Hydroxycyclopropyl)pyridin-2-yl)pyrimidin-2-yl)-3-(methylsulfinyl)-1H-indol-6-yl)(morpholino)methanone] | 98% | –
4 | CCN(C)C(=O)c1ccc2c([S+](C)[O-])cn(-c3ncc(-c4cc(C)ccn4)cn3)c2c1 (centres unmarked) [Example 271, N-Ethyl-N-methyl-1-(5-(4-methylpyridin-2-yl)pyrimidin-2-yl)-3-(methylsulfinyl)-1H-indole-6-carboxamide] | – | 97%
5 | CNC(=O)CN(C)C(=O)c1ccc2c([S+](C)[O-])cn(-c3ncc(-c4cc(C)ccc4F)cn3)c2c1 (centres unmarked) [Example 304, 1-(5-(2-Fluoro-5-methylphenyl)pyrimidin-2-yl)-N-methyl-N-(2-(methylamino)-2-oxoethyl)-3-(methylsulfinyl)-1H-indole-6-carboxamide] | 115% | –
6 | CCc1ccnc(-c2cnc(-n3cc([S+](C)[O-])c4ccc(C(=O)N(C)C)cc43)nc2)c1 (centres unmarked) [Example 278, 1-(5-(4-Ethylpyridin-2-yl)pyrimidin-2-yl)-N,N-dimethyl-3-(methylsulfinyl)-1H-indole-6-carboxamide] | – | 92%
7 | C[S+]([O-])c1cn(-c2ncc(-c3cc(C4CC4)ccn3)cn2)c2cc(C(=O)N3CCCC3)ccc12 (centres unmarked) [Example 341, (1-(5-(4-Cyclopropylpyridin-2-yl)pyrimidin-2-yl)-3-(methylsulfinyl)-1H-indol-6-yl)(pyrrolidin-1-yl)methanone] | 108% | –
8 | COc1ccnc(-c2cnc(-n3cc([S+](C)[O-])c4ccc(C(=O)N5CCCC5)cc43)nc2)c1 (centres unmarked) [Example 342, (1-(5-(4-Methoxypyridin-2-yl)pyrimidin-2-yl)-3-(methylsulfinyl)-1H-indol-6-yl)(pyrrolidin-1-yl)methanone] | 113% | –
9 | Cc1ccnc(-c2cnc(-n3cc([S+](C)[O-])c4ccc(C(=O)N5CCOCC5)cc43)nc2)c1 (single isomer, unassigned) [Example 351, (1-(5-(4-Methylpyridin-2-yl)pyrimidin-2-yl)-3-(methylsulfinyl)-1H-indol-6-yl)(morpholino)methanone] | – | 93%
10 | C[S+]([O-])c1cn(-c2ncc(-c3cc(NCC4CC4)ccn3)cn2)c2cc(C(=O)N3CCOCC3)ccc12 (centres unmarked) [Example 296, (1-(5-(4-((Cyclopropylmethyl)amino)pyridin-2-yl)pyrimidin-2-yl)-3-(methylsulfinyl)-1H-indol-6-yl)(morpholino)methanone] | – | 97%

The next lines start with the values.

Row | inhibition at 10 µM | inhibition at 1 µM | SMILES
11 | 91% | – | CCNc1ccc(F)c(-c2cnc(-n3cc([S+](C)[O-])c4ccc(C(=O)N5CCOCC5)cc43)nc2)c1 (centres unmarked) [Example 292, (1-(5-(5-(Ethylamino)-2-fluorophenyl)pyrimidin-2-yl)-3-(methylsulfinyl)-1H-indol-6-yl)(morpholino)methanone]
12 | – | 93% | Cc1ccc(F)c(-c2cnc(-n3cc(S(C)(=O)=O)c4ccc(C(=O)N5CCOCC5)cc43)nc2)c1 [Example 350, (1-(5-(2-Fluoro-5-methylphenyl)pyrimidin-2-yl)-3-(methylsulfonyl)-1H-indol-6-yl)(morpholino)methanone]
13 | – | 76% | CC(C)c1ccnc(-c2cnc(-n3cc(S(C)(=O)=O)c4ccc(C(=O)N5CCOCC5)cc43)nc2)c1 [Example 324, (1-(5-(4-Isopropylpyridin-2-yl)pyrimidin-2-yl)-3-(methylsulfonyl)-1H-indol-6-yl)(morpholino)methanone]
14 | – | 97% | CN(C)c1ccnc(-c2cnc(-n3cc([S+](C)[O-])c4ccc(C(=O)N5C[C@@H]6C[C@H]5CN6)cc43)nc2)c1 (stereo partly drawn) [Example 248, (1S,4S)-2,5-Diazabicyclo[2.2.1]heptan-2-yl(1-(5-(4-(dimethylamino)pyridin-2-yl)pyrimidin-2-yl)-3-(methylsulfinyl)-1H-indol-6-yl)methanone]
15 | 92% | – | CS(=O)(=O)c1cn(-c2ncc(-c3ccccc3F)cn2)c2cc(C(=O)N3C[C@H]4C[C@@H]3CO4)ccc12 [Example 349, (1R,4R)-2-Oxa-5-azabicyclo[2.2.1]heptan-5-yl(1-(5-(2-fluorophenyl)pyrimidin-2-yl)-3-(methylsulfonyl)-1H-indol-6-yl)methanone]
16 | – | 97% | Cc1ccc(F)c(-c2cnc(-n3cc([S+](C)[O-])c4ccc(C(=O)N(C)CC(N)=O)cc43)nc2)c1 (centres unmarked) [Example 281, N-(2-Amino-2-oxoethyl)-1-(5-(2-fluoro-5-methylphenyl)pyrimidin-2-yl)-N-methyl-3-(methylsulfinyl)-1H-indole-6-carboxamide]
17 | 109% | – | Cc1ccc(F)c(-c2cnc(-n3cc(C(C)O)c4ccc(C(=O)N5CCOCC5)cc43)nc2)c1 (centres unmarked) [Example 320]
18 | 143% | – | Cc1ccc(F)c(-c2cnc(-n3cc(C(C)O)c4ccc(C(=O)N5CC[C@@H](N)C5)cc43)nc2)c1 (stereo partly drawn) [Example 321, ((R)-3-Aminopyrrolidin-1-yl)(1-(5-(2-fluoro-5-methylphenyl)pyrimidin-2-yl)-3-(1-hydroxyethyl)-1H-indol-6-yl)methanone]
19 | – | 80% | C[S+]([O-])c1cn(-c2ncc(-c3ccccc3F)cn2)c2cc(C(=O)N3CC=CCC3)ccc12 (centres unmarked) [Example 306, (5,6-Dihydropyridin-1(2H)-yl)(1-(5-(2-fluorophenyl)pyrimidin-2-yl)-3-(methylsulfinyl)-1H-indol-6-yl)methanone]
20 | – | 113% | CCc1ccc(F)c(-c2cnc(-n3cc([S+](C)[O-])c4ccc(C(=O)N5CCCC5)cc43)nc2)c1 (centres unmarked) [Example 275, (1-(5-(5-Ethyl-2-fluorophenyl)pyrimidin-2-yl)-3-(methylsulfinyl)-1H-indol-6-yl)(pyrrolidin-1-yl)methanone]
21 | – | 94% | CC(=O)Oc1ccc(F)c(-c2cnc(-n3cc([S+](C)[O-])c4ccc(C(=O)N5CCOCC5)cc43)nc2)c1 (centres unmarked) [Example 264, 4-Fluoro-3-(2-(3-(methylsulfinyl)-6-(morpholine-4-carbonyl)-1H-indol-1-yl)pyrimidin-5-yl)phenyl acetate]
22 | 64% | – | Cc1ccnc(-c2cnc(-n3cc([S+](C)[O-])c4ccc(C(=O)N5CC[C@@H](N)C5)cc43)nc2)c1 (stereo partly drawn) [Example 336, ((R)-3-Aminopyrrolidin-1-yl)(1-(5-(4-methylpyridin-2-yl)pyrimidin-2-yl)-3-(methylsulfinyl)-1H-indol-6-yl)methanone]
23 | – | 54% | Cc1ccnc(-c2cnc(-n3cc(S(C)(=O)=O)c4ccc(C(=O)N5CCOCC5)cc43)nc2)c1 [Example 353, (1-(5-(4-Methylpyridin-2-yl)pyrimidin-2-yl)-3-(methylsulfonyl)-1H-indol-6-yl)(morpholino)methanone]

From US9315490B2, “2,5-substituted pyrimidines” (Grünenthal GmbH, priority 2014, dated 2016)
